{"source": "patent US6803186B2", "about": "“Compositions and methods for increasing amino acid absorption in mammals” (The IAMS Company, priority 2001, dated 2004)", "key": {"[1]": {"target": "T1, PepT1-expressing Caco-2 cells (Homo sapiens, UniProt P46059)", "T1 construct": "GlySar uptake by the PepT1-expressing Caco-2 cells; host or cells: Caco-2 cells", "T1 sequence (P46059 1-708)": "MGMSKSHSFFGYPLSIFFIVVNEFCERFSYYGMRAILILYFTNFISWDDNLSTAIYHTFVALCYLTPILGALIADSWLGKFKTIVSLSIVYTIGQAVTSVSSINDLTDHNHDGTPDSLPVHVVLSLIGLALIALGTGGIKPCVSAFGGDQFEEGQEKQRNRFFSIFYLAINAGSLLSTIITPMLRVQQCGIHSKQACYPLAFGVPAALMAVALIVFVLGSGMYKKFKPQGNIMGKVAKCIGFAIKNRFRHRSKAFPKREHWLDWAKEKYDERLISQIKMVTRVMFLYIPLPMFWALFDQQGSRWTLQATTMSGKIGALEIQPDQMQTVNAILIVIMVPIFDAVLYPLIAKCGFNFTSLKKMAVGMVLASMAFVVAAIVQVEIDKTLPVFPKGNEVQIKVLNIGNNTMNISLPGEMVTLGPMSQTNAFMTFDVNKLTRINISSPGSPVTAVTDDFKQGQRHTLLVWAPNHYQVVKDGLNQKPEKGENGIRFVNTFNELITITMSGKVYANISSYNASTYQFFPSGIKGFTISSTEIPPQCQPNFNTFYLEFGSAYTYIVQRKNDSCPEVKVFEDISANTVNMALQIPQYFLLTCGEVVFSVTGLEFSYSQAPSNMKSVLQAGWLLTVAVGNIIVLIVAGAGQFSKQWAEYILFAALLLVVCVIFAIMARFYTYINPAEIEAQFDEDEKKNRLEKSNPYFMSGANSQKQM", "settings": "read-out: reported Km for GlySar uptake; cited from earlier work"}, "[2]": {"target": "T2, canine PepT1 (cPepT1) (Canis lupus familiaris, UniProt Q8WMX5)", "T2 construct": "endogenous in cells; host or cells: MDCK (Madin-Darby Canine Kidney) cells, whole-cell [3H]-GlySar uptake", "T2 sequence (Q8WMX5 1-708)": "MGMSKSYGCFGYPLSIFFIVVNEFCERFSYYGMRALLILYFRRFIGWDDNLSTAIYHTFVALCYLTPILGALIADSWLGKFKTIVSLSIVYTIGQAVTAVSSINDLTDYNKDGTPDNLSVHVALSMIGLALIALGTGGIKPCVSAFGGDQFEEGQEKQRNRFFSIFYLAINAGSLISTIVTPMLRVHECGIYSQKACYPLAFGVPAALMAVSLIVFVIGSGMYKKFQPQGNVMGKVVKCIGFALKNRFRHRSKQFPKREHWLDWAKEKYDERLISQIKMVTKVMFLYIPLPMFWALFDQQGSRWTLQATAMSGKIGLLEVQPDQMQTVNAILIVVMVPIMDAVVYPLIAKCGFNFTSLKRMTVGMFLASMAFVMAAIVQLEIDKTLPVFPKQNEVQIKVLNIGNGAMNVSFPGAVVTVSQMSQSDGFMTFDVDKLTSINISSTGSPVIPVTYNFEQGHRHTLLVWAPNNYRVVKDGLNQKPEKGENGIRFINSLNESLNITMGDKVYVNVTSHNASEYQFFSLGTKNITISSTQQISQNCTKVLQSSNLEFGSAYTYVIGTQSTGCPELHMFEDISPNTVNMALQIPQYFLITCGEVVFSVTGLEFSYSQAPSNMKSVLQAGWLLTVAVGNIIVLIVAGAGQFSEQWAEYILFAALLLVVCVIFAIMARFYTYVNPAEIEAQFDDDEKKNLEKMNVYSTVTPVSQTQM", "assay": "Substrate regulation of H+-dependent GlySar uptake capacity of MDCK cells cultured in DMEM (Example 3, Trials 1 and 2)", "assay_type": "cell-based", "settings": "10 mM in DMEM, 24 h of culture", "experimental": "All cells were plated (60,000/2 cm^2 well) and cultured (95% air/5% CO2, 37° C.) for 24 h in Dulbecco's Modified Eagle Media/10% fetal calf serum (FCS)/1%Antibiotic/Antimicrobial solution (ABAM) (DMEM media). Following these initial common culture conditions, cells then were cultured in DMEM, or DMEM that contained 10 mM of Camosine, GlyPhe, Phe, or Gly. Media were changed every 24 h. Media treatments (n=8) were as follows:\nThe measurement of [^3H]Glysarcosine uptake was performed by using a 24-well cluster tray method (Kilberg M S. Measurement of amino acid transport by hepatocytes in suspension and monolayer culture. Methods Enzym 1989; 173:564-575. Matthews J C, Aslanian A, McDonald K K, Yang W, Malandro M S, Novak D A, Kilberg M S. An expression system for mammalian amino acid transport using a stably maintained episomal vector. Anal Biochem 1997; 254:208-214), and used in Examples 1 and 2. Cells were cultured for 30 min in air at 37° C. in depletion medium (25 mM Hepes/Tris (pH 7.5), 140 mM NaCl, 5.4 mM KCl, 1.8 mM CaCl2, 0.8 mM MgSO4, and 5 mM glucose), to normalize intracellular nutrient pools before transport. The transport assays are initiated by replacing depletion medium with uptake medium (Depletion medium adjusted to pH 6.0) that contained 100 μM GlySar (5 μCi/mL, with [^3H]-GlySar supplying 2.88% of total GlySar). After a 30 minute incubation period, transport was terminated with four rinses of 4° C. depletion medium (pH 7.5). Two hundred and twenty μL of 10% trichloroacetic acid was added to each well, and the radioactivity of the supernatant quantified by liquid scintillation counting. The cells of each well are solubilized in 0.2 N NaOH/0.2% SDS and the protein quantified by using the modified Lowry assay, using bovine serum as a standard. Id. Peptide uptake will be reported as pmol* mg^−1 protein* 30 min^−1. Uptake measurements were taken after 24, 48, and 72 hours of culture in treatment media.\nThe MDCK cell line was maintained as described previously in the Methods section of Trial 1. […]"}}, "note": "Square brackets hold non-standard residues; d marks the D form. Peptide text beside a SMILES is read from it. Sar = CNCC(=O)O", "data": [{"smiles": "CN(CC(=O)O)C(=O)CN", "note": "[GlySar, glycylsarcosine] (H-Gly-[Sar]-OH)", "values": [{"measurement": "Km", "setting": "[1]", "result": 1100, "unit": "µM"}, {"measurement": "increase in GlySar uptake capacity over DMEM control media", "setting": "[2]", "result": "about 30%"}]}]}
